Target: Hepatitis C virus NS3 helicase
Assay: IC50 of HCV NS3 unwinding blockers – biochemical, fluorescence, dose response, late-stage follow-up (AID 2474)
Conditions: recombinant NS3 helicase, fluorescence unwinding assay

| Structure (SMILES) | IC50 |
| --- | --- |
| COc1ccc(C=NNC(=O)c2cc(O)c(O)c(O)c2)cc1COc1ccc(C(=O)OCC(C)C)cc1 | 9370 nM |
| Cc1cc(N2C(=O)C(O)=C(C(=O)c3ccc(C)o3)C2c2ccc(OCc3ccccc3)cc2)no1 (configuration not stated) | 1470 nM |
| COc1cccc(-n2c(SCc3cc(=O)oc4cc(O)c(O)cc34)nc3ccccc3c2=O)c1 | 2880 nM |
| CCCCCOc1ccc(C2C(C(=O)c3ccc(C)o3)=C(O)C(=O)N2c2cc(C)on2)cc1 (configuration not stated) | 1810 nM |
| Cc1ccc(C(=O)C2=C(O)C(=O)N(Cc3ccco3)C2c2cccc(Cl)c2)o1 (configuration not stated) | 6590 nM |
| COc1cc(C2C(C(=O)c3ccc(C)o3)=C(O)C(=O)N2c2cc(C)on2)ccc1OCc1ccccc1 (configuration not stated) | 1630 nM |
| CCOc1cccc(C2C(C(=O)c3ccc(C)o3)=C(O)C(=O)N2Cc2ccccc2)c1 (configuration not stated) | 5290 nM |
